# Target: T1, Androgen receptor (Homo sapiens, UniProt P10275)
# T1 sequence (P10275 whole entry): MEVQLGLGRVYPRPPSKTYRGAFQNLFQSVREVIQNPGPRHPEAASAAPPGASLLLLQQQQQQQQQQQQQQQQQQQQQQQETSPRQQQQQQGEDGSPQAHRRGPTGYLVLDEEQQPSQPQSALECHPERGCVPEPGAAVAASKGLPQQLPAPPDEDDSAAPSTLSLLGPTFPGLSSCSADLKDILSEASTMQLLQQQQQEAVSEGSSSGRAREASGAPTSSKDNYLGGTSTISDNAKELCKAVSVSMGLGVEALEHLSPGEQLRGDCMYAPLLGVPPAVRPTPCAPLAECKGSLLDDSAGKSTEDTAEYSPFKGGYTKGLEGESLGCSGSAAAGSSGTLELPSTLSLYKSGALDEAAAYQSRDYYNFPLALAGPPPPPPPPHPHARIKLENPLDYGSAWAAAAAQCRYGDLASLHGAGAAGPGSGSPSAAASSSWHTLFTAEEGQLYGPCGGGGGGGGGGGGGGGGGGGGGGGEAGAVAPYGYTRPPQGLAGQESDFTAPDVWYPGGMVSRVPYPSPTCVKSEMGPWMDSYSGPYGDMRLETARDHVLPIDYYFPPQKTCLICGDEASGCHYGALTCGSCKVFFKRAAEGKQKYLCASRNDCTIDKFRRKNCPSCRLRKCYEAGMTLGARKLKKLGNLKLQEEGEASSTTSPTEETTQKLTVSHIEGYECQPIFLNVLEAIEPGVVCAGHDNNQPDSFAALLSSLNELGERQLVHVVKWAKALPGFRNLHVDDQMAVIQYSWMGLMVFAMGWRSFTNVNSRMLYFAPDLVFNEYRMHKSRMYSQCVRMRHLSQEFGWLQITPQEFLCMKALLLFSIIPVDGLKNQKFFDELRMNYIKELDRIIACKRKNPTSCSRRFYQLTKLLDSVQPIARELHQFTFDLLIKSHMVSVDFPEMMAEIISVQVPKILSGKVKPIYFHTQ
# Test: Inhibition of [3H]mibolerone binding to human Androgen receptor of PC3/AR Cell Lysate
row,SMILES,IC50 [nM]
1,CC1(C)C(=O)N(c2ccc(C#N)c(C(F)(F)F)c2)C(=O)N1OCCOCCOCCCc1ccc(O)c(C(N)=O)c1,332
2,CC1(C)C(=O)N(c2ccc(C#N)c(C(F)(F)F)c2)C(=O)N1OCC#CCCc1ccc(O)c(C(N)=O)c1,49
3,COc1cccc2c1C(=O)c1c(O)c3c(c(O)c1C2=O)C[C@@](O)(C(=O)CO)CC3OC1C[C@H](NCNC(=O)c2cc(COCC#CCN3C(=O)N(c4ccc(C#N)c(C(F)(F)F)c4)C(=O)C3(C)C)ccc2O)[C@H](O)[C@H](C)O1 (some centres undefined),90
4,CCCC(=O)Oc1ccc(COCC#CCN2C(=O)N(c3ccc(C#N)c(C(F)(F)F)c3)C(=O)C2(C)C)cc1C(=O)NCN[C@H]1CC(OC2C[C@](O)(C(=O)CO)Cc3c(O)c4c(c(O)c32)C(=O)c2c(OC)cccc2C4=O)O[C@@H](C)[C@H]1O (some centres undefined),63
